From ChEMBL document CHEMBL5380816, “Inclusion of Nitrofurantoin into the Realm of Cancer Chemotherapy via Biology-Oriented Synthesis and Drug Repurposing” (J Med Chem, 2023)
Calls of active or inactive are those of the source. The calls are words filed in the database; no cut-off is given here.

Key:
[1] = test system: MCF7; assay: Induction of apoptosis in human MCF7 cells assessed as viable cells incubated at 0.11 uM for 72 hrs by annexin V-FITC based propidium iodide dual staining assay (reference value: 99.9%); type: functional; settings: read-out: Activity
[2] = test system: MCF7; assay: Induction of apoptosis in human MCF7 cells assessed as total apoptotic cells incubated at 0.11 uM for 72 hrs by annexin V-FITC based propidium iodide dual staining assay (reference value: 0.04 %); type: functional
[3] = test system: HeLa; assay: Induction of apoptosis in human HeLa cells assessed as early apoptotic cells incubated at 0.11 uM for 72 hrs by annexin V-FITC based propidium iodide dual staining assay (reference value: 2.77%); type: functional
[4] = test system: HepG2; assay: Induction of apoptosis in human HepG2 cells assessed as caspase3/7 activation at 0.11 uM using caspase-glo 3/7 as substrate relative to control; type: functional
[5] = test system: MDA-MB-231; assay: Anticancer activity against human MDA-MB-231 cells incubated for 24 hrs by MTT assay; type: functional, cell-based; settings: MDA-MB-231, 24 h
[6] = test system: MCF7; assay: Induction of oxidative stress in human MCF7 cells assessed as cell death by measuring redox alteration fluorescence incubated at 0.097 uM for 72 hrs in presence of dihydro dichlorofluorescein diacetate by DCFH-DA based flow cytometric analysis relative to control; type: functional
[7] = test system: MCF7; assay: Induction of apoptosis in human MCF7 cells assessed as necrotic cells incubated at 0.11 uM for 72 hrs by annexin V-FITC based propidium iodide dual staining assay (reference value: 0.03%); type: functional
[8] = test system: Caco-2; assay: Anticancer activity against human Caco-2 cells assessed as smaller cells incubated at 0.11 uM for 72 hrs by phase contrast inverted microscopic analysis; type: functional, cell-based
[9] = test system: dsDNA; assay: Induction of damage in dsDNA (unknown origin) assessed as disrupted by DNA by measuring decrease in fluorescence intensity at 100 uM incubated for 2.5 hrs by EvaGreen based fluorescence plate reader analysis; type: nucleic-acid assay
[10] = test system: Caco-2; assay: Induction of apoptosis in human Caco-2 cells assessed as necrotic cells incubated at 0.11 uM for 72 hrs by annexin V-FITC based propidium iodide dual staining assay (reference value: 0.02%); type: functional
[11] = test system: HeLa; assay: Induction of apoptosis in human HeLa cells assessed as late apoptotic cells incubated at 0.11 uM for 72 hrs by annexin V-FITC based propidium iodide dual staining assay (reference value: 0%); type: functional
[12] = test system: Caco-2; assay: Induction of apoptosis in human Caco-2 cells assessed as late apoptotic cells incubated at 0.017 uM for 72 hrs by annexin V-FITC based propidium iodide dual staining assay (reference value: 0.02%); type: functional
[13] = test system: HeLa; assay: Induction of apoptosis in human HeLa cells assessed as late apoptotic cells incubated at 0.017 uM for 72 hrs by annexin V-FITC based propidium iodide dual staining assay (reference value: 0%); type: functional
[14] = test system: HeLa; assay: Induction of oxidative stress in human HeLa cells assessed as cell death by measuring redox alteration fluorescence incubated at 0.027 uM for 72 hrs in presence of dihydro dichlorofluorescein diacetate by DCFH-DA based flow cytometric analysis relative to control; type: functional
[15] = test system: HepG2; assay: Induction of apoptosis in human HepG2 cells assessed as total apoptotic cells incubated at 0.017 uM for 72 hrs by annexin V-FITC based propidium iodide dual staining assay (reference value: 0.99 +/- 0.02%); type: functional
[16] = test system: MCF7; assay: Induction of apoptosis in human MCF7 cells assessed as total apoptotic cells incubated at 0.017 uM for 72 hrs by annexin V-FITC based propidium iodide dual staining assay (reference value: 0.04 %); type: functional
[17] = test system: HeLa; assay: Induction of apoptosis in human HeLa cells assessed as necrotic cells incubated at 0.017 uM for 72 hrs by annexin V-FITC based propidium iodide dual staining assay (reference value: 0%); type: functional
[18] = test system: HeLa; assay: Induction of apoptosis in human HeLa cells assessed as caspase3/7 activation at 0.017 uM using caspase-glo 3/7 as substrate relative to control; type: functional
[19] = test system: HepG2; assay: Induction of apoptosis in human HepG2 cells assessed as viable cells incubated at 0.097 uM for 72 hrs by annexin V-FITC based propidium iodide dual staining assay (reference value: 97.27%); type: functional; settings: read-out: Activity
[20] = test system: Caco-2; assay: Induction of apoptosis in human Caco-2 cells assessed as increase in Bax expression level relative to control; type: functional
[21] = test system: Caco-2; assay: Anticancer activity against human Caco-2 cells assessed as cell shrinkage incubated at 0.097uM for 72 hrs by phase contrast inverted microscopic analysis; type: functional, cell-based
[22] = test system: HepG2; assay: Anticancer activity against human HepG2 cells assessed as smaller cells incubated at 0.097uM for 72 hrs by phase contrast inverted microscopic analysis; type: functional, cell-based
[23] = test system: MCF7; assay: Induction of apoptosis in human MCF7 cells assessed as caspase3/7 activation at 0.097 uM using caspase-glo 3/7 as substrate relative to control; type: functional
[24] = test system: MCF7; assay: Anticancer activity against human MCF7 cells assessed as absence of normal spindle shape incubated at 0.097uM for 72 hrs by phase contrast inverted microscopic analysis; type: functional, cell-based
[25] = test system: HepG2; assay: Anticancer activity against human HepG2 cells assessed as cell shrinkage incubated at 0.098uM for 72 hrs by phase contrast inverted microscopic analysis; type: functional, cell-based
[26] = test system: HeLa; assay: Anticancer activity against human HeLa cells assessed as absence of normal spindle shape incubated at 0.098uM for 72 hrs by phase contrast inverted microscopic analysis; type: functional, cell-based
[27] = test system: Caco-2; assay: Anticancer activity against human Caco-2 cells assessed as losing contact with neighbouring cells incubated at 0.098uM for 72 hrs by phase contrast inverted microscopic analysis; type: functional, cell-based
[28] = test system: HepG2; assay: Anticancer activity against human HepG2 cells assessed as round cells incubated at 0.098uM for 72 hrs by phase contrast inverted microscopic analysis; type: functional, cell-based
[29] = test system: Caco-2; assay: Induction of oxidative stress in human Caco-2 cells assessed as cell death by measuring redox alteration fluorescence incubated at 0.027 uM for 72 hrs in presence of dihydro dichlorofluorescein diacetate by DCFH-DA based flow cytometric analysis relative to control; type: functional
[30] = test system: MCF7; assay: Anticancer activity against human MCF7 cells assessed as cell shrinkage incubated at 0.098uM for 72 hrs by phase contrast inverted microscopic analysis; type: functional, cell-based
[31] = test system: Caco-2; assay: Induction of apoptosis in human Caco-2 cells assessed as late apoptotic cells incubated at 0.098 uM for 72 hrs by annexin V-FITC based propidium iodide dual staining assay (reference value: 0.02%); type: functional
[32] = test system: HeLa; assay: Induction of apoptosis in human HeLa cells assessed as pro-oxidant effect by measuring free radical generation measured at 0.098 uM after 72 hrs; type: functional, cell-based
[33] = test system: Caco-2; assay: Induction of apoptosis in human Caco-2 cells assessed as viable cells incubated at 0.098 uM for 72 hrs by annexin V-FITC based propidium iodide dual staining assay (reference value: 99.89%); type: functional; settings: read-out: Activity
[34] = test system: Caco-2; assay: Induction of apoptosis in human Caco-2 cells assessed as early apoptotic cells incubated at 0.098 uM for 72 hrs by annexin V-FITC based propidium iodide dual staining assay (reference value: 0.07%); type: functional
[35] = test system: Caco-2; assay: Induction of apoptosis in human Caco-2 cells assessed as late apoptotic cells by measuring orange to red patch incubated at 0.098 uM for 72 hrs by acridine orange-ethidium bromide dual staining based fluorescence microscopic analysis; type: functional, cell-based
[36] = test system: HeLa; assay: Induction of apoptosis in human HeLa cells assessed as early apoptotic cells incubated at 0.098 uM for 72 hrs by annexin V-FITC based propidium iodide dual staining assay (reference value: 2.77%); type: functional

## C#CCN1C(=O)CN(/N=C/c2ccc([N+](=O)[O-])o2)C1=O
[1]
  viability at 0.11 µM: 53.7%
[2]
  Activity: 38.72%
[3]
  Activity: 9.44%
[4]
  Activity: 63%
[5]
  IC50: 242 µM
[6]
  Activity: 35.5%
[7]
  Activity: 4.01%
[8]
  Activity: Active
[9]
  Activity: Active
[10]
  Activity: 0.57%
[11]
  Activity: 22.69%

## O=c1[nH]cc(F)c(=O)[nH]1 [FLUOROURACIL]
[12]
  Activity: 2.71%
[13]
  Activity: 3.4%
[14]
  Activity: 4.91%
[15]
  Activity: 3.9%
[16]
  Activity: 2.94%
[17]
  Activity: 0.89%
[18]
  Activity: 12%

## NS(=O)(=O)c1ccc(-n2cc(CN3C(=O)CN(/N=C/c4ccc([N+](=O)[O-])o4)C3=O)nn2)cc1
[19]
  viability at 0.097 µM: 78.9%
[20]
  Activity: 300%
[21]
  Activity: Active
[22]
  Activity: Active
[23]
  Activity: 58%
[24]
  Activity: Active

## O=C(CN1C(=O)CN(/N=C/c2ccc([N+](=O)[O-])o2)C1=O)c1ccc(Cl)cc1
[25]
  Activity: Active
[26]
  Activity: Active
[27]
  Activity: Active
[28]
  Activity: Active
[29]
  Activity: 54.7%
[30]
  Activity: Active
[31]
  Activity: 27.58%
[32]
  Activity: Active
[33]
  viability at 0.098 µM: 60.6%
[34]
  Activity: 8.53%
[35]
  Activity: Active
[36]
  Activity: 6.1%
